# Measurements published in patent US11994512B2, “Single-cell genomic methods to generate ex vivo cell systems that recapitulate in vivo biology with improved fidelity” (Massachusetts Institute of Technology, priority 2018, dated 2024).
# Test system: intracellular proteome of ENR+CD and ENR organoids
# Assay: LC-MS/MS TMT proteomics of ENR+CD versus ENR organoids
# Format: cell-based, C57BL/6 mice
# Conditions: for change: up = enriched in ENR+CD, down = enriched in ENR, FDR<0.05 and log fold change cut-off
# Text: Because PCs are highly secretory, protein-rich cells, Applicants sought to assess the total intracellular proteome between conditions through liquid chromatography mass spectrometry (LC-MS/MS)-based proteomics. Applicants quantified relative protein abundance across eight samples using isobaric mass tag labeling from four ENR and four ENR+CD samples (M1-1 through M2-2, first digit denotes biological donor, second digit denotes technical replicate) (FIG. 3A). Samples were processed and analyzed in a single 10-plex by LC-MS/MS (FIG. 9A).
# To affirm the reproducibility of the associated proteins in the ENR+CD-enriched proteome, Applicants performed relative quantification within differentiation sets.
# Mass spectrometry proteomics sample preparation, sequencing, and quantification. Organoid cell pellets were isolated from Matrigel with mechanical dissociation and washed (cold PBS 5X) to remove residual extracellular protein. Proteins were extracted from cell pellets with 8 M urea (Sigma), reduced with 5 mM DTT (Thermo Fisher Pierce) for 45 minutes, alkylated with 10 mM IAA (Sigma) for 45 minutes in the dark, and double digested with both Lysyl Endopeptidase “LysC” (Wako) and trypsin (Promega) overnight at RT. A small aliquot of cellular lysate was removed from each sample for protein quantification via the Pierce™ BCA Protein Assay Kit (Pierce). After proteolytic digestion, the samples were quenched using formic acid to a final concentration of 1.0% and subsequently desalted on 10 mg OASIS HLB solid phase columns (Waters).
# The peptides were labeled with TMT-10 isobaric mass tag reagent according to manufacturer's instructions (ThermoFisher Scientific). The peptides were labeled at a 1:8 ratio of peptide to TMT reagent, followed by 1-hour incubation at RT with bench top shaking at 850 rpm. After incubation, a […] of labeled tryptic peptide was removed from each labeled condition, desalted with C18 stage tips, and analyzed via LC-MS/MS using a Thermo Fisher Q Exactive Plus Hybrid Mass Spectrometer (QE-Plus) coupled to a Thermo Fisher EASY-nLC 1000 liquid chromatograph to ensure isobaric label incorporation >95%. An additional 1.0 μg of labeled tryptic peptide was removed from each channel, mixed together, desalted on a C18 stage tip, and analyzed via LC-MS to ensure equal relative protein loads. During these quality control steps, the labeled peptides were stored, unquenched at −80° C.
# [1] = ENR+CD versus ENR organoids, sample pairs in aggregate (n=4, 2 technical replicates from two biological donors)
# [2] = protein abundance ratio ENR+CD versus ENR organoids, sample pair M1-1, LC-MS/MS TMT proteomics
# [3] = protein abundance ratio ENR+CD versus ENR organoids, sample pair M1-2, LC-MS/MS TMT proteomics
# [4] = protein abundance ratio ENR+CD versus ENR organoids, sample pair M2-1, LC-MS/MS TMT proteomics
# [5] = protein abundance ratio ENR+CD versus ENR organoids, sample pair M2-2, LC-MS/MS TMT proteomics
# [6] = protein abundance, ENR+CD versus ENR organoids, aggregate of the four sample pairs
# [7] = protein abundance, ENR+CD versus ENR organoids, replicate M1-1, log2 ratio
# [8] = protein abundance, ENR+CD versus ENR organoids, replicate M1-2, log2 ratio
# [9] = protein abundance, ENR+CD versus ENR organoids, replicate M2-1, log2 ratio
# [10] = protein abundance, ENR+CD versus ENR organoids, replicate M2-2, log2 ratio
Substance,Average logFC [1],M1-1 Log2 Median Normalized [2],M1-2 Log2 Median Normalized [3],M2-1 Log2 Median Normalized [4],M2-2 Log2 Median Normalized [5],change,Average logFC [6],M1-1 Log2 Median Normalized [7],M1-2 Log2 Median Normalized [8],M2-1 Log2 Median Normalized [9],M2-2 Log2 Median Normalized [10]
Q8VHB5,−1.632,−1.611,−1.401,−1.7625,−1.754,down,,,,,
P97479,,,,,,down,−1.162,−1.135,−1.101,−1.2195,−1.191
Q7JJ13,−1.145,−1.243,−0.748,−0.9235,−1.666,down,,,,,
Q9D937,−1.943,−2.074,−1.942,−1.0675,−2.286,down,,,,,
P07309,,,,,,up,1.249,1.309,0.951,1.2255,1.511
Q60997,−1.332,−1.643,−0.987,−1.1555,−1.543,down,,,,,
Q9R0M0,1.229,1.297,0.675,1.2135,1.732,up,,,,,
Q80TR4,1.235,1.316,1.587,1.2175,0.818,up,,,,,
P97328,,,,,,down,−1.236,−1.151,−2.263,−1.4115,−0.12
P09405,,,,,,down,−1.217,−1.377,−0.807,−1.0695,−1.615
O70514,,,,,,down,−1.202,−1.413,−1.091,−1.0895,−1.216
P56716,,,,,,up,1.303,0.494,1.733,1.3015,1.329
Q6ZWR6,1.168,1.167,0.703,1.1985,1.566,up,,,,,
Q91WA1,−1.673,−1.929,−0.883,−1.5765,−2.303,down,,,,,
Q4ACU6,−1.637,−1.525,−1.512,−1.6745,−1.835,down,,,,,
Q9QWG7,−1.142,−1.032,−1.575,−1.8475,−0.115,down,,,,,
Q8BRB7,−1.345,−0.966,−1.077,−1.3755,−1.962,down,,,,,
Q03172,,,,,,up,1.206,0.832,1.656,1.2325,1.102
Q52KR3,−1.393,−2.118,−0.268,−1.3905,−1.67,down,,,,,
Q9CPS7,−1.227,−1.383,−1.226,−0.9215,−1.327,down,,,,,
Q8BHB9,−1.288,−1.576,−1.245,−1.3195,−1.01,down,,,,,
B9EJA2,,,,,,down,−1.156,−1.439,−1.031,−0.9535,−1.2
Q9ET22,1.277,1.451,1.159,1.3455,1.153,up,,,,,
Q60936,−1.292,−1.293,−1.012,−1.8255,−1.133,down,,,,,
Q9JMC3,1.386,1.758,0.805,1.3105,1.67,up,,,,,
Q91VE6,−1.411,−1.492,−1.242,−1.0275,−1.884,down,,,,,
